SMILES strings stand for the structures.

Assay [1] concerns the target PBP5 (Klebsiella pneumoniae, UniProt A6T693). Description: Membrane PBP binding assay, competition with Bocillin FL. To be noted: K. pneumoniae ATCC 13883 membranes. Here is the method: (§1) Membrane extracts containing PBPs were obtained as described above. Briefly, all species were grown in 1 L of TSB until the OD600 reached 0.9. The washed pellet was incubated with lysozyme (400 μg/mL), DNase (10 μg/mL) RNase(10 μg/mL) and anti-protease cocktail (200 mg/20 mL). Lysis was done with a French press (20,000 psi) and membrane protein were pelleted by ultracentrifugation steps (100,000 × g). The pellet was suspended in a minimal volume (300–500 μL) of KP 0.05 M buffer at pH 7. The protein concentration in the membrane preparations was determined with the Micro BCA TM Protein Assay Kit (Thermo Fisher Scientific, Rockford, IL) using bovine serum albumin as a standard.
(§2) The PBP binding assay was done as described previously[36],[56],[57]. For each antibiotic concentration tested, a quantity of 25 to 40 μg of membrane preparation was used as the source of PBPs, depending on the species. […]
(§3) To be able to visualize labeled PBPs after electrophoresis, gels were rinsed in water and fixed in a solution of 50% methanol and 7% acetic acid for 30 min. […] To obtain quantifiable data, the software Quantity One 1D analysis was used (version 4.6.6; Bio-Rad Laboratories, Richmond, CA). The volume (intensity × constant area) of each PBP was measured. […] The PBP profiles were confirmed, and the PBP numbering were determined using published data and individual molecular weights. […]

In assay [2] the target is PBP5 (Escherichia coli, UniProt P0AEB2). Described as above. As to conditions: E. coli MC4100 membranes. Here is the method:
as §1, §2, §3

Chain of PBP5 (Escherichia coli, UniProt P0AEB2) (P0AEB2 30-403): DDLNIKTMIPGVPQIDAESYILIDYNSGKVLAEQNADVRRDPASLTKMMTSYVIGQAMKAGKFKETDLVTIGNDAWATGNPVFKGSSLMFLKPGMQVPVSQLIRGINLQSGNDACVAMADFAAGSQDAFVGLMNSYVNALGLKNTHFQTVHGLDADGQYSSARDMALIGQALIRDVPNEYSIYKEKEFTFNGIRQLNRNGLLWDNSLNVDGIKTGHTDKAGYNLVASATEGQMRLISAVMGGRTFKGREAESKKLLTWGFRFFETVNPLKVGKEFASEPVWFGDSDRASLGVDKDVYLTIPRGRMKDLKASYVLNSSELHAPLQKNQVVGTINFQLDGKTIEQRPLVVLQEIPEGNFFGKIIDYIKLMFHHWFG
Chain of PBP5 (Klebsiella pneumoniae, UniProt A6T693) (A6T693 entry or part of it): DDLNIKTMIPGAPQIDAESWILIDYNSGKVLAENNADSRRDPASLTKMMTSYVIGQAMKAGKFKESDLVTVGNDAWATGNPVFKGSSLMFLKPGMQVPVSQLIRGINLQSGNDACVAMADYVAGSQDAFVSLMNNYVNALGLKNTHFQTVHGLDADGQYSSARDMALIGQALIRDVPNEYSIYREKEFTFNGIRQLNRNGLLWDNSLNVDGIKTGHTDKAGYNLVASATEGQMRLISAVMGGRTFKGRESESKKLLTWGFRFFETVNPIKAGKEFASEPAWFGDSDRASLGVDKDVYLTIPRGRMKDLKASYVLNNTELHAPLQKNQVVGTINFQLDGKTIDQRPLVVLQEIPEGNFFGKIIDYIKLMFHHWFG

As to `N[C@@H](C(=O)N[C@@H]1C(=O)N2C(C(=O)O)=C(Cl)CC[C@H]12)c1ccccc1` [LOR, loracarbef, reference compound], the half-maximal inhibitory concentration (IC50) in assay [1] and in assay [2] was more than 50 µM in each case.

These data come from article PMC12592502, “Unraveling the mechanisms behind the enhanced efficacy of β-lactam-based sideromycins” (Communications Biology, 2025).
